For 11 molecules, GI50 and TGI results are on record in PubChem BioAssay (NCI).

Structures are written as SMILES.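 1) Cells in 96-well plates. 2) Compound, 48 h, 5 concentrations. 3) Linear interpolation between surrounding doses. 4) Unreached endpoint = highest concentration. Here, GI50 denotes the concentration required for 50% inhibition of growth. The concentration for full growth arrest is given as TGI.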

Test systems include UACC-257 melanoma; HL-60(TB) leukemia; HCC-2998 colon; SK-MEL-5 melanoma; SN12C renal; SNB-75 CNS; RPMI-8226 leukemia; LOX IMVI melanoma; MOLT-4 leukemia; OVCAR-8 ovarian.
Common to all, as to experiment: NCI-60 cell line screen, 48 h

Regarding `Cc1ccc(-c2nc3nc(-c4ccc(F)cc4)nc(N4CCCNCC4)c3o2)cc1`, the GI50 in the experiment with UACC-257 melanoma was 1.89 µM; in the experiment on HL-60(TB) leukemia it was 0.211 µM; with HCC-2998 colon, 1.68 µM; in the experiment on SK-MEL-5 melanoma it was 1.75 µM; in the experiment on SN12C renal it was 1.67 µM; in the experiment on SNB-75 CNS, 1.06 µM. In addition, the GI50 was 1.85 µM in the experiment on RPMI-8226 leukemia, 1.18 µM in the experiment with LOX IMVI melanoma and 1.62 µM with MOLT-4 leukemia. Besides, the TGI was 3.65 µM in the experiment on UACC-257 melanoma; 0.46 µM in the experiment on HL-60(TB) leukemia; 3.37 µM in the experiment on HCC-2998 colon; 3.16 µM in the experiment on SK-MEL-5 melanoma; 3.13 µM in the experiment with SN12C renal; 2.24 µM in the experiment on SNB-75 CNS. For the same molecule, the TGI was 4.66 µM with RPMI-8226 leukemia, 2.55 µM with LOX IMVI melanoma and 3.47 µM in the experiment with MOLT-4 leukemia.

Take `C=C(C)C1C/C=C(/C)CCCC2(CCC3=C(CC(C(=C)C)C/C=C(/C)CCC3)O2)C(=O)C1` (stereo unspecified): the TGI with UACC-257 melanoma, with HL-60(TB) leukemia, with OVCAR-8 ovarian, in the experiment with HCC-2998 colon, with SN12C renal and with SNB-75 CNS was greater than 100 µM in each case. The TGI with RPMI-8226 leukemia, in the experiment with LOX IMVI melanoma and with MOLT-4 leukemia was greater than 100 µM each time.

As for `COc1ccc(/C(=N\NC(=S)NN)C(c2ccc(OC)cc2)C2C(=O)Oc3ccccc32)cc1` (stereo unspecified), the GI50 in the experiment on UACC-257 melanoma, in the experiment with HL-60(TB) leukemia, in the experiment on OVCAR-8 ovarian, with SK-MEL-5 melanoma, in the experiment on SN12C renal and with SNB-75 CNS was greater than 100 µM in each case. The GI50 in the experiment with RPMI-8226 leukemia and in the experiment with MOLT-4 leukemia was greater than 100 µM throughout. Besides, the TGI with UACC-257 melanoma, in the experiment with HL-60(TB) leukemia, in the experiment on OVCAR-8 ovarian, with HCC-2998 colon, in the experiment with SK-MEL-5 melanoma and with SN12C renal was greater than 100 µM each time. Further, the TGI in the experiment on SNB-75 CNS, in the experiment on RPMI-8226 leukemia and in the experiment with MOLT-4 leukemia was greater than 100 µM each time.

For `O=C(N/N=C/c1cccc(F)c1)c1ccncc1`, the TGI in the experiment on UACC-257 melanoma, in the experiment with HL-60(TB) leukemia, in the experiment with HCC-2998 colon, in the experiment on SK-MEL-5 melanoma, in the experiment with SN12C renal and in the experiment with SNB-75 CNS was greater than 100 µM in each case. For the same molecule, the TGI with RPMI-8226 leukemia, in the experiment on LOX IMVI melanoma and with MOLT-4 leukemia was greater than 100 µM each time.

On to `CC1(C)CC2C(=O)c3ccccc3NC2c2ccccc21` (stereo unspecified), for which the TGI in the experiment on UACC-257 melanoma is greater than 100 µM; in the experiment with HL-60(TB) leukemia, 32.6 µM; in the experiment on OVCAR-8 ovarian, greater than 100 µM; in the experiment on HCC-2998 colon it was greater than 100 µM; with SK-MEL-5 melanoma it was 26.7 µM; with SN12C renal, greater than 100 µM. Moreover, the TGI with SNB-75 CNS is greater than 100 µM; in the experiment on RPMI-8226 leukemia, 14.4 µM; in the experiment with LOX IMVI melanoma, greater than 100 µM.

For `CCOC(=O)C1SC(=Nc2ccc(Cl)cc2)N=C1C` (stereo unspecified), the TGI is 55.9 µM with HL-60(TB) leukemia; 43.3 µM with OVCAR-8 ovarian; 31.5 µM in the experiment on HCC-2998 colon; 31.3 µM in the experiment on SN12C renal; 44.7 µM in the experiment on SNB-75 CNS; 82.3 µM in the experiment with RPMI-8226 leukemia. Moreover, the TGI with LOX IMVI melanoma came to 32.5 µM; in the experiment with MOLT-4 leukemia, 48.8 µM.

Consider `C(=N\Nc1nnn(Cc2ccccc2)n1)/c1ccccc1`, for which the TGI in the experiment with UACC-257 melanoma is greater than 100 µM; in the experiment with HL-60(TB) leukemia, 11.7 µM; in the experiment with OVCAR-8 ovarian, greater than 100 µM; in the experiment on HCC-2998 colon, greater than 100 µM; in the experiment with SK-MEL-5 melanoma, greater than 40.7 µM; in the experiment with SN12C renal, greater than 100 µM. Besides, the TGI in the experiment on SNB-75 CNS is 36.8 µM; in the experiment with LOX IMVI melanoma, greater than 100 µM; with MOLT-4 leukemia, greater than 100 µM. Besides, the GI50 in the experiment with HL-60(TB) leukemia is 1.3 µM; in the experiment on OVCAR-8 ovarian, 6.72 µM; with HCC-2998 colon it was 5.07 µM; in the experiment with SK-MEL-5 melanoma, 2.02 µM; in the experiment with SN12C renal, 9.46 µM; in the experiment on SNB-75 CNS it was 3.67 µM. Also, the GI50 was 6 µM with LOX IMVI melanoma and 3.82 µM with MOLT-4 leukemia.

With `CC(=O)O[C@H]1CCc2c(cc(N)c3c2C(=O)C[C@]2(C)C([C@H](C)CCCC(C)C)CCC32C)C1(C)C` (stereo partly specified), the TGI in the experiment on UACC-257 melanoma, in the experiment with HL-60(TB) leukemia, in the experiment with OVCAR-8 ovarian, in the experiment on HCC-2998 colon, in the experiment with SK-MEL-5 melanoma and in the experiment with SN12C renal was greater than 100 µM throughout. The TGI with SNB-75 CNS, in the experiment on RPMI-8226 leukemia and in the experiment on MOLT-4 leukemia was greater than 100 µM each time.

`O=C(/C=C/c1ccccc1)c1ccc(NCc2nc3ccccc3[nH]2)cc1`: the TGI in the experiment with UACC-257 melanoma was 13.2 µM; in the experiment with HL-60(TB) leukemia, greater than 22.3 µM; with OVCAR-8 ovarian, 14.9 µM; in the experiment on HCC-2998 colon, 4.2 µM; in the experiment on SK-MEL-5 melanoma, 14.2 µM; in the experiment with SN12C renal it was 15.4 µM. In addition, the TGI in the experiment on SNB-75 CNS stood at 20.9 µM; in the experiment on LOX IMVI melanoma it was 3.76 µM; in the experiment with MOLT-4 leukemia, 32.3 µM.

With `COc1ccc(C(=O)c2ccc([As]=O)cc2)cc1` (stereo unspecified), the GI50 with HL-60(TB) leukemia is 0.106 µM; in the experiment on OVCAR-8 ovarian it was 0.0617 µM; in the experiment on HCC-2998 colon, 0.113 µM; with SK-MEL-5 melanoma it was 0.14 µM; in the experiment on SN12C renal, 0.0418 µM; with SNB-75 CNS it was 0.126 µM. The values for the GI50 in the experiment on RPMI-8226 leukemia, in the experiment on LOX IMVI melanoma and in the experiment on MOLT-4 leukemia were 0.0224 µM, 0.0237 µM and 0.0389 µM, respectively. For the same molecule, the TGI with HL-60(TB) leukemia came to 0.346 µM; in the experiment on OVCAR-8 ovarian it was 0.203 µM; in the experiment on HCC-2998 colon, 0.246 µM; in the experiment with SK-MEL-5 melanoma it was 0.288 µM; in the experiment on SN12C renal it was 0.199 µM; in the experiment with SNB-75 CNS it was 0.417 µM. Also, the figures for the TGI with RPMI-8226 leukemia, in the experiment on LOX IMVI melanoma and in the experiment with MOLT-4 leukemia were 0.0643 µM, 0.075 µM and 0.265 µM, respectively.

`CC(C)(C)OC(=O)NCCCCCCCn1c2c(c3ccccc3c1=O)C(=O)c1ccccc1-2`: the GI50 with UACC-257 melanoma was 41.4 µM; in the experiment with HL-60(TB) leukemia, 16.4 µM; in the experiment on OVCAR-8 ovarian, 21.5 µM; in the experiment on HCC-2998 colon, 40.6 µM; in the experiment with SK-MEL-5 melanoma, 9.84 µM; with SN12C renal, 73.7 µM. The results for the GI50 with SNB-75 CNS, in the experiment with LOX IMVI melanoma and in the experiment with MOLT-4 leukemia were 21.5 µM, 65.2 µM and 25.6 µM, respectively. The TGI in the experiment with UACC-257 melanoma was greater than 100 µM; in the experiment on HL-60(TB) leukemia it was 40.5 µM; with OVCAR-8 ovarian it was greater than 100 µM; in the experiment with HCC-2998 colon, greater than 100 µM; in the experiment with SK-MEL-5 melanoma, 27.6 µM; in the experiment on SN12C renal, greater than 100 µM. Also, the TGI is 49.7 µM in the experiment on SNB-75 CNS, greater than 100 µM in the experiment on LOX IMVI melanoma and greater than 100 µM in the experiment on MOLT-4 leukemia.
